Counter-ions that a name gives are not always drawn. Like-named read-outs stand apart in the source and are kept apart here.
Key:
[1] = biological target: T1, α2A receptor (Homo sapiens, UniProt P08913); experiment: Competition binding, [3H]rauwolscine, human α2A receptor; settings: for Ki: read-out: pKi alpha-2 2a (converted)
T1 construct: host or cells: LM(tk-) cells, line L-α2A
T1 sequence (P08913 1-465): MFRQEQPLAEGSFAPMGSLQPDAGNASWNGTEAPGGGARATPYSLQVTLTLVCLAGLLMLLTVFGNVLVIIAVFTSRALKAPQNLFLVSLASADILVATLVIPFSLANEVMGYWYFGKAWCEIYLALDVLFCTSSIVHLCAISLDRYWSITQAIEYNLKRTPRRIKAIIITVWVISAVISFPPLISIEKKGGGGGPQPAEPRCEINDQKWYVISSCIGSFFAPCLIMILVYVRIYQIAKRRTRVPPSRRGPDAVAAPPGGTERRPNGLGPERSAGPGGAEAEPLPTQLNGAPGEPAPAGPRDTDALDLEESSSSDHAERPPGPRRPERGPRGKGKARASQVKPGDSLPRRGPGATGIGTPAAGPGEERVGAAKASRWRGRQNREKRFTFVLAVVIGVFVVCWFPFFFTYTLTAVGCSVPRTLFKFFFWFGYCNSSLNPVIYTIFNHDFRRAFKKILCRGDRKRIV
Summary of the method: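 Lysates of LM(tk−) cells stably expressing human α2A, α2B or α2C receptors in 25 mM glycylglycine pH 7.6. Equilibrium competition against 0.5 nM [3H]rauwolscine, with 10 μM phentolamine defining nonspecific binding. Bound ligand separated by GF/B filtration.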

[2] = biological target: T2, α1C Human Adrenergic Receptor (Homo sapiens, UniProt P35348); experiment: Radioligand binding, [3H]prazosin, cloned human α1C adrenergic receptor; settings: cloned human receptor in LM(tk-) cell membranes, SEM and n in lines below; for Ki: read-out: pKi alpha-1 1c (converted)
T2 construct: The entire coding region of α1C (1401 bp); expressed in transfected cells
T2 sequence (P35348 1-466): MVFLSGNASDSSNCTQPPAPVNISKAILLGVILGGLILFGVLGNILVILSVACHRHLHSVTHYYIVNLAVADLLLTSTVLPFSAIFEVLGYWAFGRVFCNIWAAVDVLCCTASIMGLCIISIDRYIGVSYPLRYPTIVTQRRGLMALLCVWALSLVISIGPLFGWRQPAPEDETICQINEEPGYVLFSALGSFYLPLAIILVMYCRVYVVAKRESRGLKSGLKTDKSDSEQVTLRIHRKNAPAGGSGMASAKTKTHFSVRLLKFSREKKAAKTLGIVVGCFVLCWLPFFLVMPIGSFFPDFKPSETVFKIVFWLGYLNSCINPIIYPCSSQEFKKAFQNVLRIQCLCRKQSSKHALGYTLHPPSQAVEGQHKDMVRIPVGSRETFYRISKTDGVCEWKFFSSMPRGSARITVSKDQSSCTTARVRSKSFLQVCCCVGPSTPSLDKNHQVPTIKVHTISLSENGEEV
Summary of the method: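 Antagonist radioligand [3H]prazosin at 0.5 nM labels human α1C receptors in stably transfected LM(tk−) cell membranes over 20 min at 37° C. Phentolamine (10 μM) gives nonspecific binding.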

[3] = biological target: T3, L-type calcium channel (Rattus norvegicus, UniProt P22002); experiment: Competition binding of [3H]nitrendipine to membrane fragments of rat cardiac muscle
T3 construct: membrane fragments of rat cardiac muscle; from tissue; host or cells: rat cardiac muscle membranes

[4] = [3H]rauwolscine, LM(tk-) cell line L-α2A, SEM and n in lines below
[5] = [3H]nitrendipine, rat cardiac muscle membranes, SEM and n in lines below, read-out: pKi Ca (converted)
[6] = [3H]nitrendipine, rat cardiac muscle membranes, SEM and n in lines below

T3 sequence (P22002 whole entry, other chains not shown, the tested form may be a part): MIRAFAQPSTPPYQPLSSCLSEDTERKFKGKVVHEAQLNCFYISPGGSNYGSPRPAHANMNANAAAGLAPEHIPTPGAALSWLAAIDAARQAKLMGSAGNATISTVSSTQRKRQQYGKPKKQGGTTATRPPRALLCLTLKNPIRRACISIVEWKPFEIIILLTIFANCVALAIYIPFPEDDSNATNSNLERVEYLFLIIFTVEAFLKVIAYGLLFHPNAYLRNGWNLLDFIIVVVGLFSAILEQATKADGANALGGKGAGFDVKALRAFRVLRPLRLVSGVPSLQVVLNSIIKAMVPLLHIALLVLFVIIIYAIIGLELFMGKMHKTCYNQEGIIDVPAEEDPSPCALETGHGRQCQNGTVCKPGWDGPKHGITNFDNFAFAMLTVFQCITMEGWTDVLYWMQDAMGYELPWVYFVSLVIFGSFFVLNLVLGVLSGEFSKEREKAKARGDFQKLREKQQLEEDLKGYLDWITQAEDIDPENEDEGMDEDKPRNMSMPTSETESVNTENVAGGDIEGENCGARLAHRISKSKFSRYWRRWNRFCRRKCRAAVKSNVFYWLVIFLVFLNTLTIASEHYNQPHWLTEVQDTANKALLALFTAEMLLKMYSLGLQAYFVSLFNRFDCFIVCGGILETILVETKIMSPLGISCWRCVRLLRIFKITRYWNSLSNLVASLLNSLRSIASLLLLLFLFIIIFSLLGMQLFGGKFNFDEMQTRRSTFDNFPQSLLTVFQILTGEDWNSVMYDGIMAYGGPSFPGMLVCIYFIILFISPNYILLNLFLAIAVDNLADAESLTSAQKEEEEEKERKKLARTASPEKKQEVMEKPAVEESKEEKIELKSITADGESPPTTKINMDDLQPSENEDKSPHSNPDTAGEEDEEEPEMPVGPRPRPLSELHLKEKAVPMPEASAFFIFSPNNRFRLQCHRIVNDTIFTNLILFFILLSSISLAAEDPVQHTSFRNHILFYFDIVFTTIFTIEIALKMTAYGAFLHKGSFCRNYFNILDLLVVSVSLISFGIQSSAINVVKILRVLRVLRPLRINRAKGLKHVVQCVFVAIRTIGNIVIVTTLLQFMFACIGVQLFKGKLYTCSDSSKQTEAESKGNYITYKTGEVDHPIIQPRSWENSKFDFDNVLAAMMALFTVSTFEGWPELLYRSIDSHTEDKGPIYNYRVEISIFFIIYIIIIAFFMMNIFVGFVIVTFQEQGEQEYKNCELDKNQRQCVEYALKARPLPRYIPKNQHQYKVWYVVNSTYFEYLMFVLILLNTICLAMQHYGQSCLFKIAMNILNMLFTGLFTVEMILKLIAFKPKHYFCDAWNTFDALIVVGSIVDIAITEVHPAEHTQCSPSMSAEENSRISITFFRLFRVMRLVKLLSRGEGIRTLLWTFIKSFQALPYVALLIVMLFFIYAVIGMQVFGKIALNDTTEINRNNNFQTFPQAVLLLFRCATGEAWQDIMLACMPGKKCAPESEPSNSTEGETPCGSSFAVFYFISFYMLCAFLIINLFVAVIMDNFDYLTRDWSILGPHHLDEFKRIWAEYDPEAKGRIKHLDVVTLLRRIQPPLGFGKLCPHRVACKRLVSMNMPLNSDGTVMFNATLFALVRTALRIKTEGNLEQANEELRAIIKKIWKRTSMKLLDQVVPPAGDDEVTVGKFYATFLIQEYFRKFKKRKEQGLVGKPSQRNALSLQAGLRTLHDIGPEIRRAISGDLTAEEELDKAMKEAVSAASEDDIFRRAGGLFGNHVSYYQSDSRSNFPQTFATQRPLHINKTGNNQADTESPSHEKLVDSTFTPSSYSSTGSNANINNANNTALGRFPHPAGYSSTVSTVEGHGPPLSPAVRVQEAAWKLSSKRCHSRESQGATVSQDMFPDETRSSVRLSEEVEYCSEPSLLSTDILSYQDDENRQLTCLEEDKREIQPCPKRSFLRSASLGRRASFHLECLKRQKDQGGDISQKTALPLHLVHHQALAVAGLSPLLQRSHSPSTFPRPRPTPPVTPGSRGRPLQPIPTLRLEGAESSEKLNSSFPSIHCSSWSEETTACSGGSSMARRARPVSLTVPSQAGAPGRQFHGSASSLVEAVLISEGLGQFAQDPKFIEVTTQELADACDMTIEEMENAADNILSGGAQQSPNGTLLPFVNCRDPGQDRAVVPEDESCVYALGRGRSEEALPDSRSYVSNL
T3 sequence (P54290 25-944 partner limits assumed, other chains not shown): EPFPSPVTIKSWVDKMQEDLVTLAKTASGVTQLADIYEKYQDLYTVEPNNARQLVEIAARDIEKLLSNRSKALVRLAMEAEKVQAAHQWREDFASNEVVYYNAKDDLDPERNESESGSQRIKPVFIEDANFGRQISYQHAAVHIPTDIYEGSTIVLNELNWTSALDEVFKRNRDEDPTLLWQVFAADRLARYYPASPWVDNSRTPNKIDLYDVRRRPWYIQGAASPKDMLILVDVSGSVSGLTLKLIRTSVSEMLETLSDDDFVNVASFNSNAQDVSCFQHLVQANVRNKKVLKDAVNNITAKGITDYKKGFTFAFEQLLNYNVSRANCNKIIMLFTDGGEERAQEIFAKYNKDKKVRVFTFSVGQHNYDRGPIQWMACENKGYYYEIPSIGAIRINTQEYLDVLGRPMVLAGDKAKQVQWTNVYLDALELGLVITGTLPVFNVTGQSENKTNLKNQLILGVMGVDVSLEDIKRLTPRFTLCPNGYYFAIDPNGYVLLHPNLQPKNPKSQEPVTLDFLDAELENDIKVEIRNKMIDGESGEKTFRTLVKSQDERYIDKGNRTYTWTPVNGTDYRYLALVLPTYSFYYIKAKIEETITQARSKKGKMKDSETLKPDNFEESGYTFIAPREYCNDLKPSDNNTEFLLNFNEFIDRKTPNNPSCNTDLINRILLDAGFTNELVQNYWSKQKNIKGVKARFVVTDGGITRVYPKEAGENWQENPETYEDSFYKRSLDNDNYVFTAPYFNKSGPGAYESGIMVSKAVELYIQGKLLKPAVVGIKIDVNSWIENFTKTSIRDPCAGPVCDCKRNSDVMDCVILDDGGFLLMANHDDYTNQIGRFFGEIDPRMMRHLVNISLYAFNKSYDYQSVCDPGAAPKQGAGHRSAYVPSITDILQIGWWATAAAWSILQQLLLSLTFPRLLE
T3 sequence (P54290 945-1091 partner limits assumed, other chains not shown): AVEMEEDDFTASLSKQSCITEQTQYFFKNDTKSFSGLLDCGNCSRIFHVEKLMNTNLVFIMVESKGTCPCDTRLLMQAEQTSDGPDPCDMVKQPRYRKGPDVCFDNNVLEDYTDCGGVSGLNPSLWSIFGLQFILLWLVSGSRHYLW

| Compound | pKi alpha-2 2a [1] | pKi alpha-1 1c [2] | Ki ([3]; pKi Ca) [µM] | pKi alpha-2 2a [1, 4] | Ki [3, 5] [µM] | Ki [1, 4] [nM] | Ki [2] [nM] | pKi Ca [3, 6] |
| --- | --- | --- | --- | --- | --- | --- | --- | --- |
| CNC(=O)C1=C(C)NC(C)=C(C(=O)NCCCN2CCC(c3ccccc3)(c3ccccc3)CC2)C1c1ccc([N+](=O)[O-])cc1 (stereo not drawn) [Example 38, 1,4-Dihydro-2,6-dimethyl-5-(N-methyl)carboxamido-4-(4-nitrophenyl)-3-{N-[3-(4,4-diphenylpiperidin-1-yl)propyl]}carboxamidopyridine] | 6.40 | 8.50 | 7.08 | – | – | – | – | – |
| CC(=O)C1=C(C)NC(C)=C(C(=O)NCCCN2CCC(c3ccccc3)(c3ccccc3)CC2)C1c1ccc([N+](=O)[O-])cc1 (stereo not drawn) [Example 47, 5-Acetyl-1,4-dihydro-2,6-dimethyl-4-(4-nitrophenyl)-3-{N-[3-(4,4-diphenylpiperidin-1-yl)propyl]}carboxamidopyridine] | – | 8.93 | – | 6.22 | 17.8 | – | – | – |
| COC(=O)C1=C(C)NC(C)=C(C(=O)OCCCN2CCC(c3ccccc3)CC2)C1c1ccc([N+](=O)[O-])cc1 (stereo not drawn) [Example 48, 1,4-Dihydro-5-methazycarbonyl-2,6-dimethyl-4-(4-nitrophenyl)-3-[3-(4-phenylpiperidin-1-yl)propoxy]}carbonylpyridine hydrochloride hydrate] | – | – | – | – | 0.479 | 17.4 | 0.525 | – |
| COC(=O)C1=C(C)NC(C)=C(C(=O)OCCCN2CCCCC2)C1c1ccc([N+](=O)[O-])cc1 (stereo not drawn) [Example 50, 1,4-Dihydro-5-methoxycarbonyl-2,6-dimethyl-4-(4-nitrophenyl)-3-[3-(piperidin-1-yl)propoxy]carbonylpyridine hydrochloride etherate] | – | – | – | – | 9.55 | 1510 | 85.1 | – |
| COC(=O)C1=C(C)NC(C)=C(C(=O)NCCCN2CCCCC2)C1c1ccc([N+](=O)[O-])cc1 (stereo not drawn) [Example 51, 1,4-Dihydro-3-methoxycarbonyl-2,6-dimethyl-4-(4-nitrophenyl)-5-{N-[3-(piperidin-1-yl)propyl]}carboxamidopyridine hydrochloride etherate] | – | – | – | – | 1000 | 447 | 479 | – |
| COC(=O)C1=C(C)NC(C)=C(C(=O)NCCCCN2CCC(c3ccccc3)(c3ccccc3)CC2)C1c1ccc([N+](=O)[O-])cc1.Cl.O (stereo not drawn) [Example 53, 1,4-Dihydro-3-methoxycarbonyl-2,6-dimethyl-4-(4-nitrophenyl)-5-{N-[4-(4,4-diphenylpiperidin-1-yl)butyl]}carboxamidopyridine hydrochloride hydrate] | – | 7.83 | – | 6.18 | – | – | – | 5.54 |
| COC(=O)C1=C(C)NC(C)=C(C(=O)NCCCN2CCc3cc(OC)c(OC)cc3C2)C1c1ccc([N+](=O)[O-])cc1 (stereo not drawn) [Example 57, 1,4-Dihydro-3-methoxycarbonyl-5-{N-[3-(1,2,3,4-tetrahydro-6,7-dimethoxyisoquinolin-2-yl)propyl]}carboxamido-2,6-dimethyl-4-(4-nitrophenyl)pyridine hydrochloride hydrate] | – | – | – | – | 1000 | 195 | 603 | – |
| COc1cc2c(cc1OC)CN(CCCNC(=O)C1=C(C)NC(C)=C(C(N)=O)C1c1ccc([N+](=O)[O-])cc1)CC2 (stereo not drawn) [Example 58, 5-Carboxamido-1,4-dihydro-3-{N-[3-(1,2,3,4-tetrahydro-6,7-dimethoxyisoquinolin-2-yl)propyl]}carboxamido-2,6-dimethyl-4-(4-nitrophenyl)pyridine hydrochloride] | – | – | – | – | 166 | 8.32 | 331 | – |
| CC1=C(C(N)=O)C(c2ccc([N+](=O)[O-])cc2)C(C(=O)NCCCN2CCC(c3ccccc3)CC2)=C(C)N1 (stereo not drawn) [Example 60, 5-Carboxamido-1,4-dihydro-2,6-dimethyl-4-(4-nitrophenyl)-3-{N-[3-(4-phenylpiperidin-1-yl)propyl]}carboxamidopyridine] | – | – | – | – | 158 | 5.5 | 2.75 | – |
| CC1=C(C(N)=O)C(c2cccc([N+](=O)[O-])c2)C(C(=O)NCCCN2CCC(c3ccccc3)CC2)=C(C)N1 (stereo not drawn) [Example 62] | – | – | – | – | 19.5 | 24.5 | 2.63 | – |
| CC1=C(C(=O)NCCCN2CCC(c3ccccc3)CC2)C(c2ccc([N+](=O)[O-])cc2)c2c([nH]c(=O)[nH]c2=O)N1 (stereo not drawn) [Example 63, 1,4-Dihydro-6-methyl-4-(4-nitrophenyl)-5-{N-[3-(4-phenylpiperidin-1-yl)propyl]}carboxamido-[2,3, d]uracilylpyridine] | – | – | – | – | 66.1 | 955 | 38.9 | – |
| COC(=O)C1=C(C)NC(c2ccoc2)=C(C(=O)NCCCN2CCC(c3ccccc3)CC2)C1c1ccc([N+](=O)[O-])cc1 (stereo not drawn) [Example 65, 2-(Furan-3-yl)-1,4-dihydro-5-methoxycarbonyl-6-methyl-4-(4-nitrophenyl)-5-{N-[3-(4-phenylpiperidin-1-yl)propyl]}carboxamidopyridine hydrochloride hydrate] | – | – | – | – | 3.09 | 200 | 1.05 | – |
| CC1=C(C(N)=O)C(c2ccc([N+](=O)[O-])cc2)C(C(=O)NC2CCN(Cc3ccccc3)CC2)=C(c2ccoc2)N1.Cl.O (stereo not drawn) [Example 66] | – | 6.59 | – | 5.53 | – | – | – | 6.22 |
| CCC1=C(C(=O)NCCCN2CCC(c3ccccc3)CC2)C(c2ccc([N+](=O)[O-])cc2)C(C(=O)OC)=C(C)N1 (stereo not drawn) [Example 74, 2-Ethyl-1,4-dihydro-5-methoxycarbonyl-6-methyl-4-(4-nitro)phenyl-3-(N-(3-(4-phenylpiperidin-1-yl)propyl)) carboxamidopyridine hydrochloride hydrate] | – | – | – | – | 5.25 | 58.9 | 0.501 | – |
| CCC1=C(C(=O)NC2CCN(Cc3ccccc3)CC2)C(c2ccc([N+](=O)[O-])cc2)C(C(=O)OC)=C(C)N1 (stereo not drawn) [Example 75, 2-Ethyl-1,4-dihydro-5-methoxycarbonyl-6-methyl-4-(4-nitro)phenyl-3-(N-(N-phenylmethyl)piperidin-4-yl)carboxamidopyridine hydrochloride] | – | – | – | – | 3.55 | 2880 | 794 | – |
| CCC1=C(C(=O)NCCCN2CCc3cc(OC)c(OC)cc3C2)C(c2ccc([N+](=O)[O-])cc2)C(C(N)=O)=C(C)N1.Cl.O (stereo not drawn) [Example 76, 5-Carboxamido-2-ethyl-1,4-dihydro-3-(N-(3-(1,2,3,4-tetrahydro-6,7-dimethoxyisoquinolin-2-yl)propyl)) carboxamido-6-methyl-4-(4-nitro)phenylpyridine hydrochloride hydrate] | – | 6.63 | – | 6.96 | – | – | – | 5.49 |
| CCC1=C(C(=O)NCCCCN2CCC(c3ccccc3)CC2)C(c2ccc([N+](=O)[O-])cc2)C(C(N)=O)=C(C)N1.Cl.O (stereo not drawn) [Example 77, 5-Carboxamido-2-ethyl-1,4-dihydro-6-methyl-4-(4-nitro)phenyl-3-(N-(4-(4-phenylpiperidin-1-yl)butyl))carboxamidopyridine hydrochloride hydrate] | – | 8.30 | – | 6.95 | – | – | – | 5.94 |
| COC(=O)C1=C(C)NC(c2ccccc2)=C(C(=O)NCCCN2CCC(c3ccccc3)CC2)C1c1ccc([N+](=O)[O-])cc1.Cl (stereo not drawn) [Example 79, 1,4-Dihydro-5-methoxycarbonyl-6-methyl-4-(4-nitro)phenyl-2-phenyl-3-(N-(3-(4-phenylpiperidin-1-yl)propyl)) carboxamidopyridine hydrochloride] | – | 7.76 | – | 6.84 | – | – | – | 6.17 |
